Assay results from EP0178438A1, “Novel compounds” (BEECHAM GROUP PLC, priority 1984, dated 1986).

Test system: acid secretion
Assay: perfused rat stomach preparation (anti-secretory response, pH of perfusate)
Format: in vivo, male Wistar rats
Settings: bolus intravenous injection, maximal reduction in hydrogen-ion concentration as percentage of control, carbachol or histamine stimulated, urethane anaesthetized rat; for inhibition in vivo at 1 µmol/kg: Dose 1 μmol/kg; for inhibition in vivo at 2 µmol/kg: Dose 2 μmol/kg; for inhibition in vivo at 2.5 µmol/kg: Dose 2.5 μmol/kg
Method: The modified (1) perfused stomach preparation (2) ofthe urethane (25% solution) anaesthetized rat, maintained at 37 °C, allows the continuous measurement of pH during basal and stimulated acid secretion.
The lumen of the stomach of male Wistar rats (approximately 200 g bodyweight) was perfused, via a cannula designed to reduce the dead space of the stomach, with 5% glucose solution (37°C) at the rate of 3 ml/min. The perusate was forced over the surface of the secretory mucose only, the antrum being excluded. The effluent then passed over a microflow type glass pH electrode via a collecting funnel situated in the non-glandular forestomach.
The secretagogue carbachol or histamine was administered as a constant intravenous infusion to produce a stady rate of acid secretion. Test compounds were administered in solution as bolus intravenous injections and any effect on th pH of the perfusate noted. The perfusate Ph was recorded on a potentiometric recorder and anti-secretory responses were measure in terms of the maximal reduction in hydrogen-ion concentration expressed as a percentage of the 'control' concentrations.

Cc1cnc(C[S+]([O-])c2nc3ccccc3[nH]2)c(C)c1N(C)C (centres unmarked) [Example 2, 2-[ (4-Dimethylamino-3,5-dimethylpyrid-2-1)methylsulphinyl] benzimidazole]
inhibition in vivo at 1 µmol/kg: 37%

Cc1cnc(C[S+]([O-])c2nc3ccccc3[nH]2)c(C)c1N1CCCCC1 (centres unmarked) [Example 6b, 2-[(3,5-dimethyl-4-(piperid-1-yl)pyrid-2-yl)methylsulphinyl]benzimidazole]
inhibition in vivo at 2 µmol/kg: 50%

Cc1cnc(C[S+]([O-])c2nc3ccccc3[nH]2)c(C)c1N1CCOCC1 (centres unmarked) [Example 8b, 2-[(3,5-dimethyl-4-morpholino-pyrid-2-yl)methylsulphinyl]benzimidazole]
inhibition in vivo at 0.5 µmol/kg (Dose 0.5 μmol/kg): 72%

Cc1cnc(C[S+]([O-])c2nc3cc(Cl)ccc3[nH]2)c(C)c1N(C)C (centres unmarked) [Example 11b, 5-Chloro-2-[(4-dimethylamino-3,5-dimethypyrid-2-yl)-methylsulphinyl]benzimidazole]
inhibition in vivo at 2 µmol/kg: 37%

Cc1cnc(C[S+]([O-])c2nc3ccc(Cl)cc3[nH]2)c(C)c1N1CCOCC1 (centres unmarked) [Example 14b, 5-Chloro-2-[(3,5-dimethyl-4-morpholinopyrid-2-yl)-methylsulphinyl]benzimidazole]
inhibition in vivo at 1 µmol/kg: 60%

Cc1c(N2CCOCC2)ccnc1C[S+]([O-])c1nc2ccccc2[nH]1 (centres unmarked) [Example 21b, 2-[(3-Methyl-4-morpholino-pyrid-2-yl)methylsulphinyl]-benzimidazole]
inhibition in vivo at 2 µmol/kg: 87%

Cc1cnc(C[S+]([O-])c2nc3ccccc3[nH]2)c(C)c1Nc1ccccc1 (centres unmarked) [Example 23b, 2-[(3,5-Dimethyl-4-N-anilino-pyrid-2-yl)methylsulphinyl]benzimidazole]
inhibition in vivo at 5 µmol/kg (Dose 5 μmol/kg): 86%

Cc1c(N(C)c2ccccc2)ccnc1C[S+]([O-])c1nc2ccccc2[nH]1 (centres unmarked) [Example 24b]
inhibition in vivo at 2 µmol/kg: 100%

Cc1c(C[S+]([O-])c2nc3ccccc3[nH]2)ncnc1N1CCCCC1 (centres unmarked) [Example 25b, 2-[(5-Methyl-4-(1-piperidinyl)-pyrimidin-6-yl)methylsulphinyl]benzimidazole]
inhibition in vivo at 2 µmol/kg: 84%

Cc1c(C[S+]([O-])c2nc3ccccc3[nH]2)ncnc1N1CCOCC1 (centres unmarked) [Example 26b, 2-[(5-Methyl-4-morpholino-pyrimidin-6-yl)methylsulphinyl]benzimidazole]
inhibition in vivo at 2.5 µmol/kg: 84%

Cc1c(C[S+]([O-])c2nc3ccccc3[nH]2)ncnc1N(C)C (centres unmarked) [Example 27b, 2-[(5-Methyl-4-dimethylamino-pyrimidin-6-yl)methylsulphinyl]benzimidazole]
inhibition in vivo at 2.5 µmol/kg: 92%
